One may read the IC50 as the concentration needed to halve the response being measured. Higher therefore signals lower potency. The inhibition is how much of the control response was suppressed. A high value points to a response far below the control.

What all share (assay type): cell-based
In experiment [1] the target is T1, ASIC1b (Rattus norvegicus, UniProt P55926).
T1 construct: gene Asic1; homomeric rASIC1b (splice variant) expressed in CHO cells
T1 sequence (P55926 186-526 limits assumed): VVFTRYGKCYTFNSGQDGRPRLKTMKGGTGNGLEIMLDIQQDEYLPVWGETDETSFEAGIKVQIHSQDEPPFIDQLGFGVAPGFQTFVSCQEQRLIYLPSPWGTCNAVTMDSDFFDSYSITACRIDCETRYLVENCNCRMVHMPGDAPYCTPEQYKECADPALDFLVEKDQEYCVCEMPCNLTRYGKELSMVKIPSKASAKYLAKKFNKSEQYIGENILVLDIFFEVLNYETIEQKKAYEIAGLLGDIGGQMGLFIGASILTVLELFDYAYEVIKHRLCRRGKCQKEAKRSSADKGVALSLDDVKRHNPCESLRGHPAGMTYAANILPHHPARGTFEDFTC
Description: whole-cell patch clamp, CHO cells, activation at pH […]. (The patch-clamp technique gives a direct electrical read-out from membranes.)

Experiment [2] deals with T1, ASIC1b. Nature of the experiment: whole-cell patch clamp, CHO cells, inhibition at […].
The target of experiment [3] is T1, ASIC1b. Nature of the experiment: whole-cell patch clamp, CHO cells, block at […], pH […].

As for `Nc1c2ccccc2nc2ccccc12` [9AA, 9-aminoacridine], the IC50 at ASIC1b [1] turned out to be 440 ± 20 µM.

With `CC12CC3CC(C)(C1)CC(N)(C3)C2` [memantine], the inhibition at 1000 µM against ASIC1b [2] was found to be 44 ± 16%.

As for `N=C(N)NC(=O)c1nc(Cl)c(N)nc1N` [amiloride], on ASIC1b [3], the inhibition at 30 µM stood at 53 ± 7%.

(Values after paper PMC4463418, “The Effect of Hydrophobic Monoamines on Acid-Sensing Ion Channels ASIC1B” (Acta Naturae, 2015).)
